By IC50 is commonly meant the concentration that inhibits the measured activity by half.

Data on three compounds can be found in patent publication US9428542B2, “Lupane triterpenoid derivatives and pharmaceutical use thereof” (priority 2012, dated 2016).

Data set [1] deals with HIV-1IIIB. In words: HIV-1 full replication assay (HIV-1IIIB-infected MT-2 cells, supernatant read out on TZM-bl cells, β-Gal). The conditions noted are these: Human immunodeficiency virus 1, MT2, 72 h, inhibiting HIV-1IIIB replication in MT-2 cells, 3 days; read-out: IC50 (PM). Type of data set: cell-based.
The subject of data set [2] is MT-2 cells. In words: Compounds' cytotoxicity assay in MT-2 cells (CellTiter-Glo). Type of data set: cell-based. Also on record: unit not given here. Particulars: toxicity in MT-2 cells, 3 days. In a few lines: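 MT-2 cells were added to compounds (11-point, 3-fold serial dilutions in DMSO) and held 3 days at 37 °C, 5% CO2. Viability was read by CellTiter-Glo luminescence to give TC50. Therapeutic index is defined as TC50/IC50, with IC50 taken from the HIV-1 IIIB replication assay in MT-2 cells.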
(ATP-based viability assays read luminescence as a measure of living cells.)

A value given as a limit tells only on which side of the number the result lay.

As to `CC(C)C1=C2[C@H]3CC[C@@H]4[C@@]5(C)CC[C@H](OC(=O)CC(C)(C)C(=O)O)C(C)(C)[C@@H]5CC[C@@]4(C)[C@]3(C)CC[C@@]2(Nc2nnc(-c3ncc(Cl)cn3)o2)CC1=O` [Compound 141-3], in data set [1], the half-inhibitory concentration (IC50) worked out at 1.7 nM. Besides, the “TC50 (PM)” value in data set [2] is 22.
In the same order, the values of `CC(C)C1=C2[C@H]3CC[C@@H]4[C@@]5(C)CC[C@H](OC(=O)CC(C)(C)C(=O)O)C(C)(C)[C@@H]5CC[C@@]4(C)[C@]3(C)CC[C@@]2(c2cc(=O)n(-c3ccc(Cl)cc3)n2CCN)CC1=O` [Compound 155-1] are 1.6 nM and 78.
In the case of `CC(C)C1=C2[C@H]3CC[C@@H]4[C@@]5(C)CC[C@H](OC(=O)CC(C)(C)C(=O)O)C(C)(C)[C@@H]5CC[C@@]4(C)[C@]3(C)CC[C@@]2(c2cc(=O)n(-c3ccc(Cl)cc3)n2CCN(C)C)CC1=O` [Compound 156-1], the IC50 in data set [1] was not above 0.17 nM. The “TC50 (PM)” value in data set [2] was determined as 19.
